What was measured:
Assay type in all cases: in vivo, souris
[1] = tested on: Bcl2; experiment: ELISA of Bcl2 in mouse hippocampus after Aβ25-35
Text: (§1) Le 1^er jour : une version « mélangée » (scrambled) du peptide amyloïde β25-35 (Sc.Aβ, témoin négatif) ou le peptide amyloïde β25-35 (Aβ25-35) est injecté par voie intra-cérébroventriculaire (ICV) (le peptide Aβ25-35 provoque l'intoxication cellulaire). Entre le 1^er jour et le 10^ème jour, les traitements sont administrés une fois par jour par voie intrapéritonéale (IP).
(§2) A la fin de la session de rétention d'évitement passif, le 10^ème jour, les animaux sont sacrifiés par décapitation. L'hippocampe et le cortex frontal sont disséqués et congelés dans l'azote liquide. L'hippocampe est utilisé pour mesurer le taux de peroxydation lipidique à l'aide d'une méthode colorimétrique et pour évaluer les taux de 4 marqueurs biochimiques par des tests ELISA. Le cortex est conservé à -80°C en attente d'analyses supplémentaires. Les plasmas sont également conservés en attente d'analyses supplémentaires. Les échantillons biologiques sont jetés après 3 mois.
(§3) Pour tous les dosages, les […] sont homogénéisés, après décongélation, dans un tampon Tris (Tris 50 mM, 150 mM NaCl, pH 7,5) et traités par ultrasons pendant 20 secondes. […] Pour chaque dosage, l'absorbance est lue à 450 nm et la concentration est calculée en utilisant la courbe standard. Les résultats sont exprimés en pg ou ng de marqueur par mg de tissu et en pourcentage de solution Sc.Aβ + véhicule. 6 échantillons par groupe (n = 36 kits ELISA) sont dosés en double.

[2] = tested on: Bax; experiment: ELISA of Bax in mouse hippocampus after Aβ25-35
Text: as §1, §2, §3

[3] = tested on: modèle murin de maladie d'Alzheimer par administration du peptide amyloïde β25-35; experiment: Spontaneous alternation test in the Y-maze (spatial working memory), Aβ25-35 mouse model; details: all doses tested (12,5, 25, 50 mg/kg per day IP), day 8, Aβ25-35 9 nmol ICV
Text: Soixante-douze souris males Swiss (30-35 grammes) sont utilisées. Six groupes sont constitués et soumis à différents traitements : Tableau 1. Groupes de traitement.
as §1
Du 8^ème au 10^ème jour, deux tests comportementaux sont effectués : • Procédure d'alternance spontanée dans le labyrinthe en Y (évaluation de la mémoire spatiale de travail) le 8^ème jour, soit 7 jours après l'injection de peptide; • Réponse d'évitement passif (évaluation de la mémoire contextuelle à long terme) avec l'entrainement le 9^ème jour et la séance de rétention le 10^ème jour.
Chaque souris est anesthésiée avec 2,5% d"isoflurane. Le peptide Aβ25-35 (9 nmol/souris) ou le peptide Sc.Aβ (9 nmol/souris) est injecté par voir ICV, dans un volume final de 3 µL/souris. […]

[4] = tested on: peroxydation lipidique; experiment: Lipid peroxidation measurement in mouse hippocampus (colorimetric, CHP equivalents); details: Etifoxine 12,5-50 mg/kg per day IP, Aβ25-35 ICV, day 10
Text: as §1, §2
Les souris de chaque groupe sont sacrifiées par décapitation et les deux hippocampes sont prélevés, pesés et conservés dans de l'azote liquide jusqu'à l'analyse. […] Après avoir lu l'absorbance à 580 nm (A5801), 10 µl d'hyperoxyde de cumène (CHP) (1 mM) sont ajoutés à l'échantillon et il est incubé pendant 30 minutes à température ambiante pour déterminer le degré d'oxydation maximal. L'absorbance est mesurée à 580 nm (A5802). […]

[5] = tested on: GFAP; experiment: ELISA of GFAP in mouse hippocampus after Aβ25-35
Text: as §1, §2, §3

[6] = Aβ25-35/Etifoxine 12.5 mg/kg IP

With `CCNC1=Nc2ccc(Cl)cc2C(C)(c2ccccc2)O1` (centres unmarked) [Etifoxine, chlorhydratede 6-chloro-2-éthylamino-4-méthyl-4-phényl-4H-[3,1]benzoxazine] as the compound, how does the “Taux de protéine Bcl2” value [1, 6] read?
Its value is 97,2 ± 2,1 % de Sc.Aβ/V.

And the “Taux de protéine Bcl2” value ([1]; Aβ25-35/Etifoxine 25 mg/kg IP)?
The value was 99,4 ± 2,3 % de Sc.Aβ/V.

And the “Taux de protéine Bcl2” value ([1]; Aβ25-35/Etifoxine 50 mg/kg IP)?
The value was 102,3 ± 3,2 % de Sc.Aβ/V.

And the “Taux de protéine Bax” value [2, 6]?
Its value is 180,1 ± 7,4 % de Sc.Aβ/V.

And the “Taux de protéine Bax” value ([2]; Aβ25-35/Etifoxine 25 mg/kg IP)?
The value was 132,6± 7,5 % de Sc.Aβ/V.

What about the “Taux de protéine Bax” value ([2]; Aβ25-35/Etifoxine 50 mg/kg IP) of the same compound?
Its value is 99,9 ± 4,2 % de Sc.Aβ/V.

And the “déficits d'apprentissage (alternance spontanée, mémoire spatiale)” value [3]?
The value was “atténue de façon significative les déficits d'apprentissage”.

And the “peroxydation lipidique dans l'hippocampe (stress oxydatif induit par Aβ25-35)” value [4]?
Its value is “diminuer de manière dose-sensible le stress oxydatif”.

And the “Expression GFAP” value [5, 6]?
The value was 160,4 ± 10,2 % de Sc.Aβ/V.

What about the “Expression GFAP” value ([5]; Aβ25-35/Etifoxine 25 mg/kg IP) of the same compound?
The value was 131,7 ± 4,3 % de Sc.Aβ/V.

What about the “Expression GFAP” value ([5]; Aβ25-35/Etifoxine 50 mg/kg IP) of the same compound?
The value was 129,8 ± 2,7 % de Sc.Aβ/V.

Reference: patent EP3454861B1, “BENZOXAZINE OR QUINAZOLINE DERIVATIVES FOR USE IN THE TREATMENT OF ALZHEIMER'S DISEASE” (Biocodex, priority 2016, dated 2017)
